# Reference: PubChem BioAssay AID1963960 (Molecular Pharmacology Branch, DTP, NCI, 2024)
# pIC50: −log10 of the molar value.
# System: MDA-MB-468 spheroids with HUVEC/MSC, viability
# Test: Anticancer human tumor MDA-MB-468 cell line growth inhibition [PI3K];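 further: spheroids exposed to agents for seven days before readout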;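 on viability, T/C: 100% = DMSO vehicle control viability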
# Conditions: for viability, T/C: stronger effect = lower value
# Procedure, shortened: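 Tumor cells grown as multi-cell spheroids with HUVEC endothelial cells and MSC fibroblast-like stroma were treated with targeted agents combined with inavolisib, alpelisib, duvelisib or copanlisib. Doses fell in half-log steps from near clinical Cmax, else from 10 microM. Viability was measured.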
# [1] = curve of first compound, second compound 0.0316 µM
# [2] = curve of first compound, second compound 0.1 µM
# [3] = curve of first compound, second compound 0.316 µM
# [4] = curve of first compound, second compound 1 µM
# [5] = second compound 0.0316 µM, first compound 0.0316 µM
# [6] = second compound 0.0316 µM, first compound 0.1 µM
# [7] = second compound 0.0316 µM, first compound 0.316 µM
# [8] = second compound 0.0316 µM, first compound 1 µM
# [9] = second compound 0.0316 µM, first compound 3.16 µM
# [10] = second compound 0.0316 µM, first compound 10 µM
# [11] = second compound 0.1 µM, first compound 0.0316 µM
# [12] = second compound 0.1 µM, first compound 0.1 µM
# [13] = second compound 0.1 µM, first compound 0.316 µM
# [14] = second compound 0.1 µM, first compound 1 µM
# [15] = second compound 0.1 µM, first compound 3.16 µM
# [16] = second compound 0.1 µM, first compound 10 µM
# [17] = second compound 0.316 µM, first compound 0.0316 µM
# [18] = second compound 0.316 µM, first compound 0.1 µM
# [19] = second compound 0.316 µM, first compound 0.316 µM
# [20] = second compound 0.316 µM, first compound 1 µM
# [21] = second compound 0.316 µM, first compound 3.16 µM
# [22] = second compound 0.316 µM, first compound 10 µM
# [23] = second compound 1 µM, first compound 0.0316 µM
# [24] = second compound 1 µM, first compound 0.1 µM
# [25] = second compound 1 µM, first compound 0.316 µM
# [26] = second compound 1 µM, first compound 1 µM
# [27] = second compound 1 µM, first compound 3.16 µM
# [28] = second compound 1 µM, first compound 10 µM
# [29] = curve of first compound, second compound 0.00316 µM
# [30] = curve of first compound, second compound 0.01 µM
# [31] = second compound 0.00316 µM, first compound 0.0316 µM
# [32] = second compound 0.00316 µM, first compound 0.1 µM
# [33] = second compound 0.00316 µM, first compound 0.316 µM
# [34] = second compound 0.00316 µM, first compound 1 µM
# [35] = second compound 0.00316 µM, first compound 3.16 µM
# [36] = second compound 0.00316 µM, first compound 10 µM
# [37] = second compound 0.01 µM, first compound 0.0316 µM
# [38] = second compound 0.01 µM, first compound 0.1 µM
# [39] = second compound 0.01 µM, first compound 0.316 µM
# [40] = second compound 0.01 µM, first compound 1 µM
# [41] = second compound 0.01 µM, first compound 3.16 µM
# [42] = second compound 0.01 µM, first compound 10 µM
structure (smiles),measurement,setting,value
C#Cc1c(F)ccc2cc(O)cc(-c3ncc4c(N5CC6CCC(C5)N6)nc(OCC56CCCN5CC(F)C6)nc4c3F)c12 (stereo not given) + CC(Nc1ncnc2nc[nH]c12)c1cc2cccc(Cl)c2c(=O)n1-c1ccccc1,pIC50,[1],< 5.00
same,pIC50,[2],< 5.00
same,pIC50,[3],< 5.00
same,pIC50,[4],< 5.00
same,pIC50,"curve of first compound, second compound 3.16 µM",5.31
same,pIC50,"curve of first compound, second compound 10 µM",> 7.50
same,"viability, T/C",[5],104%
same,"viability, T/C",[6],94.7%
same,"viability, T/C",[7],92.3%
same,"viability, T/C",[8],92.3%
same,"viability, T/C",[9],90.5%
same,"viability, T/C",[10],62.8%
same,"viability, T/C",[11],96.5%
same,"viability, T/C",[12],91.2%
same,"viability, T/C",[13],88.6%
same,"viability, T/C",[14],90.4%
same,"viability, T/C",[15],81.2%
same,"viability, T/C",[16],57.1%
same,"viability, T/C",[17],78.7%
same,"viability, T/C",[18],67.7%
same,"viability, T/C",[19],70.8%
same,"viability, T/C",[20],83.6%
same,"viability, T/C",[21],75.2%
same,"viability, T/C",[22],54.5%
same,"viability, T/C",[23],68%
same,"viability, T/C",[24],72.8%
same,"viability, T/C",[25],63.7%
same,"viability, T/C",[26],70.5%
same,"viability, T/C",[27],62%
same,"viability, T/C",[28],52.1%
same,"viability, T/C","second compound 3.16 µM, first compound 0.0316 µM",63.4%
same,"viability, T/C","second compound 3.16 µM, first compound 0.1 µM",57.5%
same,"viability, T/C","second compound 3.16 µM, first compound 0.316 µM",55.3%
same,"viability, T/C","second compound 3.16 µM, first compound 1 µM",60%
same,"viability, T/C","second compound 3.16 µM, first compound 3.16 µM",54.3%
same,"viability, T/C","second compound 3.16 µM, first compound 10 µM",43%
same,"viability, T/C","second compound 10 µM, first compound 0.0316 µM",39.2%
same,"viability, T/C","second compound 10 µM, first compound 0.1 µM",39.8%
same,"viability, T/C","second compound 10 µM, first compound 0.316 µM",35.5%
same,"viability, T/C","second compound 10 µM, first compound 1 µM",40.4%
same,"viability, T/C","second compound 10 µM, first compound 3.16 µM",38.6%
same,"viability, T/C","second compound 10 µM, first compound 10 µM",28.2%
CC(C)NCC(C(=O)N1CCN(c2ncnc3c2C(C)CC3O)CC1)c1ccc(Cl)cc1 (stereo not given) + COc1c(OCCCN2CCOCC2)ccc2c3n(c(=NC(=O)c4cnc(N)nc4)nc12)CCN3,pIC50,[29],6.04
same,pIC50,[30],6.12
same,pIC50,[1],6.15
same,pIC50,[2],6.66
same,pIC50,[3],> 7.50
same,pIC50,[4],> 7.50
same,"viability, T/C",[31],89.4%
same,"viability, T/C",[32],79.2%
same,"viability, T/C",[33],70.6%
same,"viability, T/C",[34],47.7%
same,"viability, T/C",[35],31.4%
same,"viability, T/C",[36],24.2%
same,"viability, T/C",[37],83.2%
same,"viability, T/C",[38],81.3%
same,"viability, T/C",[39],65.4%
same,"viability, T/C",[40],44.5%
same,"viability, T/C",[41],31.7%
same,"viability, T/C",[42],23.6%
same,"viability, T/C",[5],76.3%
same,"viability, T/C",[6],68.5%
same,"viability, T/C",[7],66.4%
same,"viability, T/C",[8],42.3%
same,"viability, T/C",[9],28.9%
same,"viability, T/C",[10],20.2%
same,"viability, T/C",[11],57.4%
same,"viability, T/C",[12],55.2%
same,"viability, T/C",[13],49.1%
same,"viability, T/C",[14],34.7%
same,"viability, T/C",[15],27.1%
same,"viability, T/C",[16],14.7%
same,"viability, T/C",[17],27.1%
same,"viability, T/C",[18],27%
same,"viability, T/C",[19],24.5%
same,"viability, T/C",[20],21.2%
same,"viability, T/C",[21],15.1%
same,"viability, T/C",[22],9.47%
same,"viability, T/C",[23],4.25%
same,"viability, T/C",[24],3.87%
same,"viability, T/C",[25],2.81%
same,"viability, T/C",[26],3.58%
same,"viability, T/C",[27],3.71%
same,"viability, T/C",[28],2.69%
CNC(=O)c1ccc(N2C(=S)N(c3ccc(C#N)c(C(F)(F)F)c3)C(=O)C2(C)C)cc1F,"viability, T/C",compound 0.0316 µM,98% [middle of 4 runs]
same,"viability, T/C",compound 0.1 µM,97% [middle of 4 runs]
same,"viability, T/C",compound 0.316 µM,97% [middle of 4 runs]
same,"viability, T/C",compound 1 µM,102% [middle of 4 runs]
same,"viability, T/C",compound 3.16 µM,93.3% [middle of 4 runs]
same,"viability, T/C",compound 10 µM,72.8% [middle of 4 runs]
same,pIC50,curve of compound,< 5.00
C#Cc1c(F)ccc2cc(O)cc(-c3ncc4c(N5CC6CCC(C5)N6)nc(OCC56CCCN5CC(F)C6)nc4c3F)c12 (stereo not given) + CC(Nc1ccc2c(c1)OCCn1cc(N3C(=O)OCC3C(F)F)nc1-2)C(N)=O,pIC50,[29],< 5.00
same,pIC50,[30],< 5.00
same,pIC50,[1],5.05
same,pIC50,[2],5.10
same,pIC50,[3],5.28
same,pIC50,[4],5.35
same,"viability, T/C",[31],94.9%
same,"viability, T/C",[32],91%
same,"viability, T/C",[33],86%
same,"viability, T/C",[34],91.5%
same,"viability, T/C",[35],88.2%
same,"viability, T/C",[36],53.4%
same,"viability, T/C",[37],95.7%
same,"viability, T/C",[38],103%
same,"viability, T/C",[39],83.3%
same,"viability, T/C",[40],82%
same,"viability, T/C",[41],89.2%
same,"viability, T/C",[42],55.1%
same,"viability, T/C",[5],91.4%
same,"viability, T/C",[6],84.9%
same,"viability, T/C",[7],88.3%
same,"viability, T/C",[8],81.2%
same,"viability, T/C",[9],81.9%
same,"viability, T/C",[10],46.5%
same,"viability, T/C",[11],84%
same,"viability, T/C",[12],76.7%
same,"viability, T/C",[13],72.1%
same,"viability, T/C",[14],75.5%
same,"viability, T/C",[15],73.9%
same,"viability, T/C",[16],44.4%
same,"viability, T/C",[17],93.1%
same,"viability, T/C",[18],72%
same,"viability, T/C",[19],81.1%
same,"viability, T/C",[20],64.5%
same,"viability, T/C",[21],65.7%
same,"viability, T/C",[22],36.4%
same,"viability, T/C",[23],89.1%
same,"viability, T/C",[24],75.4%
same,"viability, T/C",[25],82.1%
same,"viability, T/C",[26],70.3%
same,"viability, T/C",[27],59.2%
same,"viability, T/C",[28],31.3%
Cn1cnc2c(F)c(Nc3ccc(Br)cc3Cl)c(C(=O)NOCCO)cc21,"viability, T/C",compound 0.00949 µM,82.8% [middle of 4 runs]
same,"viability, T/C",compound 0.03 µM,83.3% [middle of 4 runs]
same,"viability, T/C",compound 0.0949 µM,86.8% [middle of 4 runs]
same,"viability, T/C",compound 0.3 µM,87.3% [middle of 4 runs]
same,"viability, T/C",compound 0.949 µM,88.8% [middle of 4 runs]
same,"viability, T/C",compound 3 µM,64.7% [middle of 4 runs]
same,pIC50,curve of compound,< 5.52
